Calls of active or inactive are those of the source. The calls are words filed in the database; no cut-off is given here.
Assays:
[1] = Cytotoxicity against HUVEC cells assessed as inhibition of cell growth; assay type: toxicity, cell-based; conditions: human
[2] = Cytotoxicity against HUVEC cells assessed as inhibition of cell growth incubated in presence of 3-cyclopropyl-1-(3-{5-[(morpholin-4-yl)methyl]-1H-1,3-benzodiazol-2-yl}-1H-pyrazol-4-yl)urea; assay type: toxicity, cell-based; conditions: human
[3] = tested on: HEL; assay: Cytotoxicity against HEL cells assessed as inhibition of cell growth irradiated with 450 nm light and incubated in presence of 3-cyclopropyl-1-(3-{5-[(morpholin-4-yl)methyl]-1H-1,3-benzodiazol-2-yl}-1H-pyrazol-4-yl)urea; assay type: functional, cell-based; conditions: Homo sapiens, light or radiation study
[4] = tested on: HEL; assay: Cytotoxicity against HEL cells assessed as inhibition of cell growth incubated under dark condition in presence of 3-cyclopropyl-1-(3-{5-[(morpholin-4-yl)methyl]-1H-1,3-benzodiazol-2-yl}-1H-pyrazol-4-yl)urea; assay type: functional, cell-based; conditions: Homo sapiens
[5] = tested on: HEL; assay: Cytotoxicity against HEL cells assessed as inhibition of cell growth incubated under hypoxic condition in presence of 3-cyclopropyl-1-(3-{5-[(morpholin-4-yl)methyl]-1H-1,3-benzodiazol-2-yl}-1H-pyrazol-4-yl)urea; assay type: functional, cell-based; conditions: Homo sapiens
[6] = tested on: HEL; assay: Antitumor activity against HEL cells xenografted in Balb/c nude mouse assessed as tumor growth inhibition at 32.5 mg/kg, ip administered once daily for 14 consecutive days relative to control; assay type: functional, Homo sapiens; conditions: 336 h, time 14 day, read-out: TGI
[7] = tested on: HEL; assay: Antitumor activity against HEL cells xenografted in Balb/c nude mouse assessed as tumor growth inhibition at 32.5 mg/kg, ip administered once daily for 14 consecutive days in presence of 3-cyclopropyl-1-(3-{5-[(morpholin-4-yl)methyl]-1H-1,3-benzodiazol-2-yl}-1H-pyrazol-4-yl)urea relative to control; assay type: functional, Homo sapiens; conditions: 336 h, time 14 day, read-out: TGI
[8] = tested on: HEL; assay: Antitumor activity against HEL cells xenografted in Balb/c nude mouse assessed as induction of apoptosis in tumor at 32.5 mg/kg, ip administered once daily for 14 consecutive days in presence of 3-cyclopropyl-1-(3-{5-[(morpholin-4-yl)methyl]-1H-1,3-benzodiazol-2-yl}-1H-pyrazol-4-yl)urea by TUNEL assay relative to control; assay type: functional, organism-based; conditions: Homo sapiens, time 14.0 day
[9] = tested on: BaF3; assay: Cytotoxicity against mouse BaF3 cells harboring EPOR JAK2 V617F mutant; assay type: functional, cell-based
[10] = tested on: HEL; assay: Cytotoxicity against HEL cells assessed as inhibition of cell growth; assay type: functional, cell-based; conditions: Homo sapiens
[11] = tested on: HEL; assay: Cytotoxicity against HEL cells assessed as inhibition of cell growth incubated in presence of 3-cyclopropyl-1-(3-{5-[(morpholin-4-yl)methyl]-1H-1,3-benzodiazol-2-yl}-1H-pyrazol-4-yl)urea; assay type: functional, cell-based; conditions: Homo sapiens
[12] = tested on: HEL; assay: Cytotoxicity against HEL cells assessed as inhibition of cell growth incubated in presence of decernotinib; assay type: functional, cell-based; conditions: Homo sapiens
[13] = tested on: HEL; assay: Cytotoxicity against HEL cells assessed as inhibition of cell growth incubated in presence of tofacitinib; assay type: functional, cell-based; conditions: Homo sapiens
[14] = tested on: HEL; assay: Cytotoxicity against HEL cells assessed as inhibition of cell growth incubated in presence of ruxolitinib; assay type: functional, cell-based; conditions: Homo sapiens
[15] = tested on: HEL; assay: Synergistic cytotoxicity against HEL cells assessed as combination index for 25% activity in presence of 3-cyclopropyl-1-(3-{5-[(morpholin-4-yl)methyl]-1H-1,3-benzodiazol-2-yl}-1H-pyrazol-4-yl)urea; assay type: functional, Homo sapiens
[16] = tested on: HEL; assay: Synergistic cytotoxicity against HEL cells assessed as combination index for 25% activity in presence of decernotinib; assay type: functional, Homo sapiens
[17] = tested on: HEL; assay: Synergistic cytotoxicity against HEL cells assessed as combination index for 25% activity in presence of tofacitinib; assay type: functional, Homo sapiens
[18] = tested on: HEL; assay: Synergistic cytotoxicity against HEL cells assessed as combination index for 25% activity in presence of ruxolitinib; assay type: functional, Homo sapiens
[19] = tested on: HEL; assay: Synergistic cytotoxicity against HEL cells assessed as combination index for 50% activity in presence of 3-cyclopropyl-1-(3-{5-[(morpholin-4-yl)methyl]-1H-1,3-benzodiazol-2-yl}-1H-pyrazol-4-yl)urea; assay type: functional, Homo sapiens
[20] = tested on: HEL; assay: Synergistic cytotoxicity against HEL cells assessed as combination index for 50% activity in presence of decernotinib; assay type: functional, Homo sapiens
[21] = tested on: HEL; assay: Synergistic cytotoxicity against HEL cells assessed as combination index for 50% activity in presence of tofacitinib; assay type: functional, Homo sapiens
[22] = tested on: HEL; assay: Synergistic cytotoxicity against HEL cells assessed as combination index for 50% activity in presence of ruxolitinib; assay type: functional, Homo sapiens
[23] = tested on: HEL; assay: Synergistic cytotoxicity against HEL cells assessed as combination index for 75% activity in presence of 3-cyclopropyl-1-(3-{5-[(morpholin-4-yl)methyl]-1H-1,3-benzodiazol-2-yl}-1H-pyrazol-4-yl)urea; assay type: functional, Homo sapiens
[24] = tested on: HEL; assay: Synergistic cytotoxicity against HEL cells assessed as combination index for 75% activity in presence of decernotinib; assay type: functional, Homo sapiens
[25] = tested on: HEL; assay: Synergistic cytotoxicity against HEL cells assessed as combination index for 75% activity in presence of tofacitinib; assay type: functional, Homo sapiens
[26] = tested on: HEL; assay: Synergistic cytotoxicity against HEL cells assessed as combination index for 75% activity in presence of ruxolitinib; assay type: functional, Homo sapiens
[27] = tested on: HEL; assay: Synergistic cytotoxicity against HEL cells assessed as combination index for 95% activity in presence of 3-cyclopropyl-1-(3-{5-[(morpholin-4-yl)methyl]-1H-1,3-benzodiazol-2-yl}-1H-pyrazol-4-yl)urea; assay type: functional, Homo sapiens
[28] = tested on: HEL; assay: Synergistic cytotoxicity against HEL cells assessed as combination index for 95% activity in presence of decernotinib; assay type: functional, Homo sapiens
[29] = tested on: HEL; assay: Synergistic cytotoxicity against HEL cells assessed as combination index for 95% activity in presence of tofacitinib; assay type: functional, Homo sapiens
[30] = tested on: HEL; assay: Synergistic cytotoxicity against HEL cells assessed as combination index for 95% activity in presence of ruxolitinib; assay type: functional, Homo sapiens
[31] = tested on: HEL; assay: Cytotoxicity against HEL cells assessed as inhibition of cell growth at 100 uM relative to control; assay type: functional; conditions: Homo sapiens
[32] = tested on: HEL; assay: Cytotoxicity against HEL cells assessed as inhibition of cell growth at 50 uM relative to control; assay type: functional; conditions: Homo sapiens
[33] = tested on: HEL; assay: Cytotoxicity against HEL cells assessed as inhibition of cell growth at 25 uM relative to control; assay type: functional; conditions: Homo sapiens
[34] = tested on: HEL; assay: Cytotoxicity against HEL cells assessed as inhibition of cell growth at 5 uM relative to control; assay type: functional; conditions: Homo sapiens
[35] = tested on: HEL; assay: Cytotoxicity against HEL cells assessed as inhibition of cell growth at 1 uM relative to control; assay type: functional; conditions: Homo sapiens
[36] = tested on: HEL; assay: Cytotoxicity against HEL cells assessed as inhibition of cell growth at 0.2 uM relative to control; assay type: functional; conditions: Homo sapiens
[37] = tested on: HEL; assay: Cytotoxicity against HEL cells assessed as inhibition of cell growth at 0.04 uM relative to control; assay type: functional; conditions: Homo sapiens
[38] = tested on: HEL; assay: Cytotoxicity against HEL cells assessed as inhibition of cell growth at 0.008 uM relative to control; assay type: functional; conditions: Homo sapiens
[39] = tested on: HEL; assay: Cytotoxicity against HEL cells assessed as inhibition of cell growth at 0.0016 uM relative to control; assay type: functional; conditions: Homo sapiens

For `Cc1cnc(Nc2ccc(N3CCNCC3)cc2)nc1Nc1cccc(S(=O)(=O)NC(C)(C)C)c1`, which IC50 [1] is on record?
The IC50 was 960 nM.

And the IC50 [2]?
Its IC50 is 1760 nM.

And the IC50 [3]?
The IC50 was 2180 nM.

And the IC50 [4]?
Its IC50 is 1410 nM.

What about the IC50 [5] of the same compound?
The IC50 was 1340 nM.

What about the inhibition in vivo at 32.5 mg/kg [6] of the same compound?
Its inhibition in vivo at 32.5 mg/kg is 62.3%.

What about the inhibition in vivo at 32.5 mg/kg [7] of the same compound?
The inhibition in vivo at 32.5 mg/kg was 91.2%.

What about the Activity [8] of the same compound?
The Activity was “Active”.

And the IC50 [9]?
The IC50 was 276 nM.

And the IC50 [10]?
The IC50 was 1160 nM.

And the IC50 [11]?
The IC50 was 550 nM.

And the IC50 [12]?
The IC50 was 3070 nM.

What about the IC50 [13] of the same compound?
The IC50 was 1530 nM.

What about the IC50 [14] of the same compound?
Its IC50 is 2450 nM.

What about the CI25 [15] of the same compound?
The CI25 was 0.683.

What about the CI25 [16] of the same compound?
The CI25 was 2.597.

What about the CI25 [17] of the same compound?
The CI25 was 2.161.

And the CI25 [18]?
Its CI25 is 2.447.

And the CI50 [19]?
Its CI50 is 0.809.

What about the CI50 [20] of the same compound?
Its CI50 is 2.226.

And the CI50 [21]?
Its CI50 is 1.636.

What about the CI50 [22] of the same compound?
The CI50 was 2.528.

What about the CI75 [23] of the same compound?
Its CI75 is 0.972.

And the CI75 [24]?
Its CI75 is 1.947.

And the CI75 [25]?
The CI75 was 1.243.

And the CI75 [26]?
The CI75 was 2.613.

What about the CI95 [27] of the same compound?
The CI95 was 1.366.

And the CI95 [28]?
Its CI95 is 1.628.

And the CI95 [29]?
Its CI95 is 0.948.

What about the CI95 [30] of the same compound?
The CI95 was 2.769.

What about the inhibition at 100 µM [31] of the same compound?
Its inhibition at 100 µM is 95.6%.

And the inhibition at 50 µM [32]?
The inhibition at 50 µM was 94.5%.

And the inhibition at 25 µM [33]?
The inhibition at 25 µM was 95%.

What about the inhibition at 5 µM [34] of the same compound?
Its inhibition at 5 µM is 70.9%.

And the inhibition at 1 µM [35]?
Its inhibition at 1 µM is 40.3%.

And the inhibition at 0.2 µM [36]?
Its inhibition at 0.2 µM is 16.5%.

And the inhibition at 0.04 µM [37]?
The inhibition at 0.04 µM was 14.2%.

What about the inhibition at 0.008 µM [38] of the same compound?
Its inhibition at 0.008 µM is -2.98%.

And the inhibition at 0.0016 µM [39]?
Its inhibition at 0.0016 µM is 3.19%.

— ChEMBL document CHEMBL5385890, “A JAK tyrosine kinase and pseudokinase Co-inhibition strategy combines enhanced potency and on-demand activation” (Eur J Med Chem, 2023)
